Experimental data: ChEMBL document CHEMBL5137058, “Therapeutic Strategies to Target the Androgen Receptor” (J Med Chem, 2022)

Legend:
[1] = target: T1, Androgen receptor (Homo sapiens) (UniProt P10275); assay: Antagonist activity at Androgen receptor (unknown origin) at 10 uM relative to control; parameters: scale not given: the % may be the effect or the level left; conditions: filed as antagonist
T1 sequence (whole entry): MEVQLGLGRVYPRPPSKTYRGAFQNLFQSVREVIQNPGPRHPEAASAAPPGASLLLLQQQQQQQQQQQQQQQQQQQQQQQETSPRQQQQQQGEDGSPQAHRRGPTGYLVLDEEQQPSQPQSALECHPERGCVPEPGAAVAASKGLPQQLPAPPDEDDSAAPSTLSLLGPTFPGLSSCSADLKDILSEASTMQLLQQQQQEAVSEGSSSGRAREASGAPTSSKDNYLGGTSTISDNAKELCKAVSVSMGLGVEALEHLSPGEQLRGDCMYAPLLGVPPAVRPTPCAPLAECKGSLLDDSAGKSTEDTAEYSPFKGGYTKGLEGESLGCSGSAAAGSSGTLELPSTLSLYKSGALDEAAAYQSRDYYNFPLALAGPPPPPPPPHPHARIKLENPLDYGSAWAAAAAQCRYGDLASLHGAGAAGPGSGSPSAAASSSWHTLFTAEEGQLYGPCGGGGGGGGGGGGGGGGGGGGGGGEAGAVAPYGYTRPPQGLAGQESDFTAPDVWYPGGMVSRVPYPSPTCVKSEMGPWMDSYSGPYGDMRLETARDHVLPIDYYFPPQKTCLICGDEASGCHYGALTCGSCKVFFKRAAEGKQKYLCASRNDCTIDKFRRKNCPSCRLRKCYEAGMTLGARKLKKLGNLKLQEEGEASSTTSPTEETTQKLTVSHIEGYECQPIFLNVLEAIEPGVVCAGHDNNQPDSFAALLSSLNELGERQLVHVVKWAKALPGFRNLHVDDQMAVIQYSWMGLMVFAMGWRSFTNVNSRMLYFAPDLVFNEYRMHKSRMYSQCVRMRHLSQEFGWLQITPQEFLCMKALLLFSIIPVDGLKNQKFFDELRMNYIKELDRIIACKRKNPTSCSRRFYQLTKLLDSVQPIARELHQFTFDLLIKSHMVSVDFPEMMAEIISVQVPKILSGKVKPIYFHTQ

[2] = Antitumor activity against human CWR22Rv cells xenografted in mouse at 10 mg/kg, ip administered for 21 days; assay type: functional; conditions: time 21 day
LNCaP C4-2 = assay: Antiproliferative activity against AR-independent human LNCaP C4-2 cells after 5 days by MTS assay; assay type: functional, cell-based; conditions: LNCaP C4-2, 120 h
HEK-293T = assay: Antiproliferative activity against NTD-over expressed human HEK293T cells after 5 days by MTS assay; assay type: functional, cell-based; conditions: 120 h
LNCaP [3] = assay: Antiproliferative activity against human LNCaP cells after 5 days by MTS assay; assay type: functional; conditions: time 5 day
[4] = Antiproliferative activity against AR-independent human CWR22Rv cells after 5 days by MTS assay; assay type: functional, cell-based; conditions: 120 h
[5] = target: T1, Androgen receptor (Homo sapiens); assay: Agonist activity at Androgen receptor (unknown origin) in presence of DHT
Androgen receptor [6] = target: T2, Androgen receptor (Homo sapiens, UniProt P10275, T878A); assay: Binding affinity to bicalutamide-resistant Androgen receptor T877A mutant (unknown origin)
Androgen receptor [7] = target: T3, Androgen receptor (Homo sapiens, UniProt P10275); assay: Antagonist activity at wild-type Androgen receptor (unknown origin) expressed in African green monkey COS-7 cells measured as gene transcription level; assay type: cell-based
T3 sequence (P10275 whole entry): T1 sequence (whole entry)

[8] = Antitumor activity against bicalutamide-resistant human LNCaP-cxD2 cells xenografted in mouse at 25 mg/kg, po administered for 28 days; assay type: functional; conditions: time 28 day
Androgen receptor [9] = target: T2, Androgen receptor; assay: Antagonist activity at Androgen receptor T877A mutant (unknown origin) expressed in African green monkey COS-7 cells measured as gene transcription level; assay type: cell-based
Androgen receptor [10] = target: T3, Androgen receptor; assay: Binding affinity to wild-type Androgen receptor (unknown origin)
Androgen receptor [11] = target: T3, Androgen receptor; assay: Agonist activity at Androgen receptor in human 22Rv1 cells cotransfected with pARE-LUC measured by luciferase assay; assay type: cell-based
[12] = Antiproliferative activity against androgen-sensitive mouse SEM-107 cells; assay type: functional, cell-based
T47D = assay: Antiproliferative activity against human T47D cells; assay type: functional, cell-based
VCaP = assay: Antiproliferative activity against human VCaP cells; assay type: functional, cell-based
[13] = Oral bioavailability in mouse; assay type: ADME, organism-based; conditions: in vivo
LNCaP [14] = assay: Antitumor activity against human LNCaP cells expressing Androgen receptor F877L mutant xenografted in mouse assessed as tumor growth inhibition at 30 mg/kg, po administered daily; assay type: functional; conditions: read-out: TGI
Androgen receptor [15] = target: T3, Androgen receptor; assay: Antagonist activity at Androgen receptor (unknown origin) in African green monkey COS-1 cells; assay type: cell-based
[16] = target: T1, Androgen receptor (Homo sapiens); assay: Displacement of [3H]DHT from Androgen receptor (unknown origin) relative to control; conditions: filed as antagonist
[17] = Half-life in plasma of rat; assay type: ADME
[18] = In vivo agonist activity at Androgen receptor in rat assessed as increase in levator ani muscle weight administered orally for 14 days; assay type: functional; conditions: 336 h, route po, time 14 day
LNCaP [19] = assay: Antitumor activity against human LNCaP cells xenografted in mouse assessed as decrease in PSA level at 25 mg/kg, sc; assay type: functional; parameters: scale not given: the % may be the effect or the level left
[20] = In vivo agonist activity at Androgen receptor in castrated rat assessed as increase in levator ani muscle weight at 2 mg administered orally per day for 5 days; assay type: functional; conditions: route po, time 5 day
[21] = In vivo agonist activity at Androgen receptor in castrated rat assessed as increase in prostate weight at 2 mg administered orally per day for 5 days; assay type: functional; conditions: route po, time 5 day
Androgen receptor [22] = target: T3, Androgen receptor; assay: Binding affinity to Androgen receptor (unknown origin); conditions: read-out: IC50
Androgen receptor [23] = target: T3, Androgen receptor; assay: Agonist activity at Androgen receptor (unknown origin) measured by androgen response element luciferase assay
[24] = In vivo agonist activity at Androgen receptor in castrated male rat assessed as increase in prostate weight at 0.76 mg administered orally per day; assay type: functional; conditions: route po
[25] = In vivo agonist activity at Androgen receptor in castrated rat assessed as increase in levator ani muscle weight at 0.11 mg administered orally per day for 14 days; assay type: functional; conditions: route po, time 14 day
[26] = target: Protein cereblon/Androgen receptor (Homo sapiens, UniProt P10275+Q96SW2); assay: Protac activity at CRBN/Androgen receptor in human LNCaP cells assessed as Androgen receptor degradation; assay type: cell-based
Androgen receptor [27] = target: T3, Androgen receptor
Description: Antagonist activity at Androgen receptor in human LNCaP cells assessed as inhibition of PSA expression

[28] = In vivo agonist activity at Androgen receptor in male rat assessed as increase in levator ani muscle weight at 0.1 mg/kg, po administered for 14 days; assay type: functional; conditions: time 14 day
[29] = In vivo agonist activity at Androgen receptor in male rat assessed as increase in prostate weight at 0.1 mg/kg, po administered for 14 days; assay type: functional; conditions: time 14 day
Androgen receptor [30] = target: Androgen receptor (Rattus norvegicus, UniProt P15207)
Description: Binding affinity to rat Androgen receptor ligand binding domain measured by competitive ligand binding assay

Androgen receptor [31] = target: T3, Androgen receptor; assay: Antagonist activity at Androgen receptor (unknown origin) assessed as inhibition of activation function 1 (AF-1) of AR N-terminal transactivation domain (NTD)

T2 sequence (P10275 whole entry T878A): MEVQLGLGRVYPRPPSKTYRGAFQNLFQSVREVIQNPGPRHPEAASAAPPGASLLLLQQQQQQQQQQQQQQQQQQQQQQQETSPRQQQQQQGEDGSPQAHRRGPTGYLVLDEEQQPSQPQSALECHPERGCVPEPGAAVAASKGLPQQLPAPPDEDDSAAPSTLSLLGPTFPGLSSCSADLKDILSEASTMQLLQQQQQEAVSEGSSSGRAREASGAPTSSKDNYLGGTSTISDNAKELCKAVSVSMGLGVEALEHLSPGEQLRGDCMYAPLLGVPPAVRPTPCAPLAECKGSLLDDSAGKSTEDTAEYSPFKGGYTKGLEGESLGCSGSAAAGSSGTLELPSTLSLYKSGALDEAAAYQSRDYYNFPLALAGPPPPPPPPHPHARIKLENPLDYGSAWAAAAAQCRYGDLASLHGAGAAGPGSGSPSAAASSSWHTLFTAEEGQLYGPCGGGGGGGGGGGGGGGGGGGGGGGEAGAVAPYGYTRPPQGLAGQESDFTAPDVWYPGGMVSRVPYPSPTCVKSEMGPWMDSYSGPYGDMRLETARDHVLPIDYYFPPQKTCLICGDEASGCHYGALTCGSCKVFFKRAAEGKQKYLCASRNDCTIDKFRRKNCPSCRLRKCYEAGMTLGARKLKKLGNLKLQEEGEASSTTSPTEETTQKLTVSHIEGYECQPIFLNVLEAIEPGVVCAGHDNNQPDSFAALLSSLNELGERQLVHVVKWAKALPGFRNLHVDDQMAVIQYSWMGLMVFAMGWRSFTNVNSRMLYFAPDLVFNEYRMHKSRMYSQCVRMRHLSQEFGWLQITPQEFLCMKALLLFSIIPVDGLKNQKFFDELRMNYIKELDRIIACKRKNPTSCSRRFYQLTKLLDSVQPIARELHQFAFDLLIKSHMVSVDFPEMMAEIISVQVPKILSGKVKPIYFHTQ
Sequence of Androgen receptor (Rattus norvegicus, UniProt P15207) (P15207 whole entry S389L, the tested form may be a part): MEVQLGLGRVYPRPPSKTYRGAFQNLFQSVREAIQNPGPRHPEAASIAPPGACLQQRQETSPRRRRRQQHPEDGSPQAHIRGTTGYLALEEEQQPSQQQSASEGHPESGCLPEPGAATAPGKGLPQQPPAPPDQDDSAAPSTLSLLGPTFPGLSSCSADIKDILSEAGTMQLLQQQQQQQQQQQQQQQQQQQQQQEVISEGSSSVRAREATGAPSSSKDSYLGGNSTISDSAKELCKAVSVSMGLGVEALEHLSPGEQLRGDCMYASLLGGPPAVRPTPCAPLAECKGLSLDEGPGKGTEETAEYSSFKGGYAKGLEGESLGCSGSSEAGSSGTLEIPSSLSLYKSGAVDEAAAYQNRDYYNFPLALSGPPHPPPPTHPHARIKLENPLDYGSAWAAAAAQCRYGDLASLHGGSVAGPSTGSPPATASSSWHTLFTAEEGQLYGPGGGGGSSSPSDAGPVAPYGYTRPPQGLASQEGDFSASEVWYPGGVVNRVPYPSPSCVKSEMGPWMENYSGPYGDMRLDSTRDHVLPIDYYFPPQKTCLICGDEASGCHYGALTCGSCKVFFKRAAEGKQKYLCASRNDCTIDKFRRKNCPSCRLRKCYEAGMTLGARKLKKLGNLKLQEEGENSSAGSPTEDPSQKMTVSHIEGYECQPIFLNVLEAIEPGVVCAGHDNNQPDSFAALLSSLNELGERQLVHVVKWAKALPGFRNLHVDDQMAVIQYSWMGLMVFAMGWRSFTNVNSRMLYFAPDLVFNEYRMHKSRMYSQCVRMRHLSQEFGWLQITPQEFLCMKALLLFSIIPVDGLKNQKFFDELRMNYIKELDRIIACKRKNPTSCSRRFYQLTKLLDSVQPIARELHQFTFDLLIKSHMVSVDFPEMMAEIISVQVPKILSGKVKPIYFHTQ
Sequence of Protein cereblon/Androgen receptor (Q96SW2 whole entry, one chain of several): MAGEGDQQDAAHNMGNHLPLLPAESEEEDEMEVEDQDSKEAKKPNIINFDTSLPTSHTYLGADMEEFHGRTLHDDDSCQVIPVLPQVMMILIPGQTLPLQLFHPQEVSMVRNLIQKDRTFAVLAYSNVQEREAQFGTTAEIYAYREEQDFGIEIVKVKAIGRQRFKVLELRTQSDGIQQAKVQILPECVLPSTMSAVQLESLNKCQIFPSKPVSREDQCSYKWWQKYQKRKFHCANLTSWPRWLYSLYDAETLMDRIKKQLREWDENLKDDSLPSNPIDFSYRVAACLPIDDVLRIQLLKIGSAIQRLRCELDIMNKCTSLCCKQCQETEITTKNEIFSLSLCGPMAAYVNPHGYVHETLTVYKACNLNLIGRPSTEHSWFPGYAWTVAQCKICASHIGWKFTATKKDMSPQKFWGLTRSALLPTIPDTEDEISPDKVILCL

CCOc1ccc2c(c1OC(C)C)CCN(c1ccc(C(=O)Nc3cccc(C)n3)cn1)C2
Activity [1]: > 95%
T/C [2]: 65%
IC50 (LNCaP C4-2): 1000 nM
IC50 (HEK-293T): 780 nM
Activity (LNCaP [3]): >90%
IC50 [4]: 1000 nM
Activity [5]: < 5%

Cc1c(C#N)c(-c2ccc(C#N)cc2)c(C)n1-c1cnc(Cl)c(CO)c1
IC50 (Androgen receptor [6]): 100 nM
IC50 (Androgen receptor [7]): 25 nM
T/C [8]: 15%
IC50 (Androgen receptor [9]): 110 nM
IC50 (Androgen receptor [10]): 37 nM

CCCN(CC(F)(F)F)c1cc(Br)c(C#N)s1
IC50 (Androgen receptor [11]): 10 nM

CC(C)(O)C(=O)Nc1ccc([N+](=O)[O-])c(C(F)(F)F)c1 [HYDROXYFLUTAMIDE]
IC50 [12]: 84 nM
IC50 (T47D): 45 nM

N#Cc1ncc(N2C(=O)C3(CCC3)N(c3ccc(OC4CCNCC4)nc3)C2=S)cc1C(F)(F)F [TRC-253]
IC50 (VCaP): 290 nM
bioavailability [13]: 45%
inhibition in vivo at 30 mg/kg (LNCaP [14]): 87%

N#Cc1ccc(C2=NO[C@H]3CCCC[C@@H]23)cc1C(F)(F)F
IC50 (Androgen receptor [15]): 27.5 nM
Activity [16]: 99.2%

CC[C@H]1[C@@H]2[C@@H](O)CCN2C(=O)N1c1ccc(C#N)c(Cl)c1C
half-life [17]: 330 min
ED50 [18]: 0.09 mg/kg

Cc1nc(O[C@H]2C(C)(C)[C@H](NC(=O)c3cnc4ncccn34)C2(C)C)ccc1C#N
Activity (LNCaP [19]): >90%

C[C@@]12CC(C(F)(F)F)=NN1C(=O)N(c1ccc(C#N)c(C(F)(F)F)c1)C2=O
Activity [20]: 75%
Activity [21]: 11%

C[C@](O)(CCOc1ccc(F)cc1)C(=O)N1CCc2c(C#N)cccc21
IC50 (Androgen receptor [22]): 12.7 nM
EC50 (Androgen receptor [23]): 2.5 nM

C[C@@]1(C(=O)Nc2ccc(C#N)c(C(F)(F)F)c2)CC(C(F)(F)F)=NN1
Activity [24]: 51%
Activity [25]: 90%

C[C@](O)(COc1ccc(OCCOCCOc2cccc3c2C(=O)N(C2CCC(=O)NC2=O)C3=O)cc1)C(=O)Nc1ccc(I)c(C#N)c1 (stereo not given in full)
DC50 [26]: 5.2 µM

NS(=O)(=O)c1cccc2cc(SCCOc3ccccc3)[nH]c12
IC50 (Androgen receptor [27]): 530 nM

Cc1c(/N=C2\O[C@@H](C(F)(F)F)[C@@H]3[C@@H](O)CCN23)ccc(C#N)c1Cl
Activity [28]: 100%
Activity [29]: 100%

C[C@](O)(Cn1ccc2cc(F)ccc21)C(=O)Nc1ccc(C#N)c(C(F)(F)F)c1
Ki (Androgen receptor [30]): > 10 µM

CC(=O)OC[C@H](COc1ccc(C(C)(C)c2ccc(OC[C@@H](CCl)OC(C)=O)cc2)cc1)OC(C)=O [RALANITEN ACETATE]
IC50 (Androgen receptor [31]): 9.6 µM
